From patent US20090005444A1, “USE OF PROPOFOL PRODRUGS FOR TREATING ALCOHOL WITHDRAWAL, CENTRAL PAIN, ANXIETY OR PRURITUS” (XenoPort, Inc., priority 2007, published 2009)

Assays:
rats = assay: Acute toxicity study, single oral dose in rats; assay type: in vivo
Method: Acute toxicity studies in rats were undertaken to assess the tolerance of a single oral dose of compound (2) formulated in water. […] Complete recovery from hypoactivity, sedation, and anesthesia occurred in all rats within about 8 hours after dosing. Doses above about 1552 mg-eq/kg (about 800 mg-eq/kg of propofol) were not tested.

male beagle dogs = assay: Acute toxicity study, single oral dose in dogs; assay type: in vivo
Method: Acute toxicity studies were also performed by orally administering a single dose of compound (2) formulated in water to groups of male beagle dogs at doses from about 25 mg-eq/kg to about 150 mg-eq/kg propofol.

male rats = assay: Multiple dose study in rats, oral once a day for five days; assay type: in vivo; conditions: oral gavage once a day for five days, 49 to 97 mg-eq/kg propofol
Method: Multiple dose studies in rats were performed by orally administering compound (2) formulated in water to groups of male rats at doses of 49 mg-eq/kg to 97 mg-eq/kg propofol for a period of five days, by oral gavages administered once a day.

[1] = oral dosing in rats; cited from earlier work
central pain = conditions: subanesthetic dose 0.2 mg/kg IV; cited from earlier work
anxiety = conditions: animal studies; cited from earlier work
delirium tremens = conditions: sedative and subsedative doses of propofol; cited from earlier work
pruritus = conditions: subhypnotic doses; cholestasis and spinal morphine administration; cited from earlier work
[2] = rats, single oral dose about 49 to about 388 mg-eq/kg propofol
[3] = rats, single oral dose about 582 to about 970 mg-eq/kg propofol
[4] = rats, single oral dose about 1164 to about 1552 mg-eq/kg propofol

Row | SMILES | time to complete recovery from hypoactivity, sedation, and anesthesia (rats; all rats, after single oral dose) | tolerance of a single oral dose (rats; rats, formulated in water, about 49 to about 1552 mg-eq/kg propofol) | onset of transient hypoactivity after dose (rats; [2]) | transient hypoactivity maintained, time post dose (rats; [2]) | onset of sedation after dosing (rats; [3]) | sedation continued, time post dose (rats; [3]) | anesthesia continued, time post dose (rats; [4]) | onset of anesthesia after dosing (rats; [4]) | tolerance of a single oral dose (male beagle dogs; formulated in water, about 25 to about 150 mg-eq/kg propofol) | sedation or anesthesia (male beagle dogs; single oral dose about 25 to about 150 mg-eq/kg propofol) | adverse effects (male rats) | sedation or anesthesia (male rats) | tolerance of multiple oral doses (male rats) | administered drug undergoing first pass metabolism [1] | effect on SCIP and CPSP central pain (central pain) | anxiolytic effect (anxiety) | effect on symptoms of delirium tremens (delirium tremens) | effect on pruritus (pruritus)
1 | CC(C)c1cccc(C(C)C)c1OC(=O)OC[C@H](N)C(=O)O [compound (2), (S)-2-amino-3-(2,6-diisopropyl-phenoxycarbonyloxy)-propanoic acid] | ≤ 8 h | well tolerated | ≤ 30 min | up to 4 hours | ≤ 1.5 h | up to 4 hours | up to 2 hours | ≤ 1 h | well tolerated | No sedation or anesthesia was observed | No adverse effects were observed | No sedation or anesthesia was observed | well tolerated |  |  |  |  | 
2 | CC(C)c1cccc(C(C)C)c1O [propofol, 2,6-diisopropylphenol] |  |  |  |  |  |  |  |  |  |  |  |  |  | approximately 90% | effective in reducing both SCIP and CPSP central pain | exerts an anxiolytic effect independent of any sedative effect | effective in reducing the symptoms of delirium tremens | effective in controlling pruritus associated with cholestasis and spinal morphine administration
